Results as given in PubChem BioAssay (NCI).
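Exposure lasted 48 hours, with cells grown in 96-well plates and compounds tested at five concentrations. TGI: concentration producing complete growth inhibition.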

Experiments:
Assay in all cases: NCI tumour cell line growth inhibition, 48 h
786-0 renal = system: 786-0 renal
A549 NSCLC = system: A549 NSCLC
COLO 205 colon = system: COLO 205 colon
HCC-2998 colon = system: HCC-2998 colon
HL-60(TB) leukemia = system: HL-60(TB) leukemia
HT29 colon = system: HT29 colon
LOX IMVI melanoma = system: LOX IMVI melanoma
OVCAR-3 ovarian = system: OVCAR-3 ovarian
SK-MEL-2 melanoma = system: SK-MEL-2 melanoma
SNB-75 CNS = system: SNB-75 CNS
TK-10 renal = system: TK-10 renal
UACC-257 melanoma = system: UACC-257 melanoma
OVCAR-5 ovarian = system: OVCAR-5 ovarian

SMILES	TGI (786-0 renal) [µM]	TGI (A549 NSCLC) [µM]	TGI (COLO 205 colon) [µM]	TGI (HCC-2998 colon) [µM]	TGI (HL-60(TB) leukemia) [µM]	TGI (HT29 colon) [µM]	TGI (LOX IMVI melanoma) [µM]	TGI (OVCAR-3 ovarian) [µM]	TGI (SK-MEL-2 melanoma) [µM]	TGI (SNB-75 CNS) [µM]	TGI (TK-10 renal) [µM]	TGI (UACC-257 melanoma) [µM]	TGI (OVCAR-5 ovarian) [µM]
OC1(c2ccc(-c3ccccc3)cc2)c2ccccc2C2=NCCN21 (stereo unspecified)	33.1	> 100	48.3	40.4	> 100	50.3	> 100	63.6	24.9	48.9	> 100	> 100	–
CS(=O)(=O)OCCN(CCOS(C)(=O)=O)c1ccc(C=Nc2cccc(Cl)c2)cc1	> 100	29.2	6.56	19.7	> 100	33.6	15.2	51.8	66.5	> 31.1	6.79	21.1	17.7
CCOC(=O)c1c(N=P(c2ccccc2)(c2ccccc2)c2ccccc2)nnc(-c2ccccc2)c1-c1ccccc1	> 100	> 100	> 100	> 100	> 100	> 100	> 100	> 100	> 100	> 100	> 100	> 100	> 100
CC1(C)OC2[C@@H](CO[C@@]3([C@@H](O)CCO)OC(C)(C)O[C@@H]23)O1 (stereo partly specified)	> 100	–	> 100	> 100	> 100	> 100	> 100	> 100	> 100	> 100	> 100	> 100	> 100
COc1ccc(C(=O)O[C@H]2[C@@H]3C=CO[C@@H](OC4OC(CO)C(O)C(O)C4O)[C@@H]3[C@@]3(CO)O[C@@H]23)cc1O (stereo partly specified)	> 100	> 100	> 100	> 100	> 100	> 100	> 100	> 100	> 100	> 100	> 100	> 100	> 100
O=C(O)Cc1ccc(Nc2nc3cc(C(F)(F)F)ccc3nc2C(=O)O)cc1	> 100	> 100	> 100	–	> 100	> 100	> 100	> 100	> 100	> 100	> 100	> 100	> 100
COC(CN(C(C)=O)C1CCC2(SCCS2)c2[nH]c3ccccc3c21)OC (stereo unspecified)	> 100	> 100	> 100	> 100	> 100	> 100	1.71	> 100	> 100	> 100	> 100	3.36	> 100
COc1ccc2nc(-c3ccccc3)cc(OCC(=O)O)c2c1	> 100	> 100	> 100	> 100	> 100	> 100	> 100	> 100	> 100	> 100	> 100	> 100	> 100
c1ccc(C(NCC2CCO2)(c2ccccc2)c2ccccc2)cc1 (stereo unspecified)	41.6	30.6	> 100	30.6	48.8	–	95.5	34.5	42.5	28.8	28.4	39.5	30.5
CSc1ccc(-c2cc(-c3nc4ccccc4[nH]3)no2)cc1	> 100	90.8	> 100	32.1	55.3	62.1	80.1	55.7	49.4	> 100	> 100	85.9	> 100
CN(C)CCNC(=O)c1ccc(NCCCN(C)CCCNc2ccc(C(=O)NCCN(C)C)c3[nH]c4ccccc4c(=O)c23)c2c(=O)c3ccccc3[nH]c12	0.312	0.313	0.294	0.177	0.659	0.236	0.179	0.694	0.262	0.0844	1.98	1.26	0.647
CCOC(=O)C1=C(O)C2C3CC4C2C(O)=C(C(=O)OCC)C2C1C3C42 (stereo unspecified)	> 100	> 100	> 100	–	> 100	> 100	> 100	> 100	> 100	> 100	> 100	> 100	> 100
COc1c(/C=C/C(C)(C)O)cc(C2CC(=O)c3c(O)cc(O)cc3O2)cc1CC=C(C)C (stereo unspecified)	18.1	19.8	17.7	8.66	30.8	16.7	11.6	–	15.6	22.8	15.8	15.9	16.5
O=C(O)C(O)C(O)C(=O)O (stereo unspecified)	> 100	> 100	> 100	–	> 100	> 100	> 100	> 100	> 100	> 100	> 100	> 100	> 100
O=C(O)CCS/C(=C\C(SCCC(=O)O)c1ccc(Cl)cc1)c1ccc(Cl)cc1 (stereo unspecified)	> 100	> 100	43.4	54.7	> 100	> 100	63.1	49	74.4	> 100	> 100	> 100	> 100
COc1ccc(-n2c(N)c(C#N)[nH]c2=O)cc1	> 10	> 10	> 10	> 10	> 10	> 10	3.98	> 10	> 10	> 10	> 10	> 10	> 10
CC(C)(C)OC(=O)NC1CC2(C=C(Br)C(=O)C(Br)=C2)OC1=O (stereo unspecified)	7.5	38.7	13.4	24.7	7.65	18.6	33.4	32.5	32	36.7	12.2	13	35.1
COc1ccc(-n2[nH]nc(C(N)=O)c2=O)cc1	> 100	> 100	> 100	> 100	> 100	> 100	> 100	13.8	> 100	> 100	–	> 100	> 100

SMILES	TGI (786-0 renal) [µM]	TGI (A549 NSCLC) [µM]	TGI (COLO 205 colon) [µM]	TGI (HCC-2998 colon) [µM]	TGI (HL-60(TB) leukemia) [µM]	TGI (HT29 colon) [µM]	TGI (LOX IMVI melanoma) [µM]	TGI (OVCAR-3 ovarian) [µM]	TGI (SK-MEL-2 melanoma) [µM]	TGI (SNB-75 CNS) [µM]	TGI (TK-10 renal) [µM]	TGI (UACC-257 melanoma) [µM]	TGI (OVCAR-5 ovarian) [µM]
CCC1(N=[N+]=[N-])C(=O)c2ccccc2N(C)C1=O (stereo unspecified)	> 100	> 100	> 100	> 100	> 100	> 100	> 100	> 100	> 100	> 100	> 100	> 100	> 100
Cc1ccc(NC=O)c(-c2c(N)[nH]c(=S)[nH]c2=O)c1	> 100	> 100	> 100	–	> 100	> 100	> 100	> 100	> 100	> 100	> 100	> 100	> 100
COC(=O)C1Cc2cc3c(cc2C1=O)CCCC3 (stereo unspecified)	> 100	> 100	> 100	> 100	> 100	> 100	> 100	> 100	> 100	> 100	> 100	> 100	> 100
Cc1ccc2c(c1)C(=O)c1nc(C)ccc1C2=O	> 100	> 100	42.7	87.8	70.3	83	> 100	> 100	> 100	> 100	> 100	45.2	> 100
NC(=O)N/N=C(/CC1C(=O)Oc2ccccc21)c1ccccc1O (stereo unspecified)	> 100	> 100	> 100	91.1	51	> 100	41.5	> 100	> 100	> 100	> 100	> 100	> 100
Cc1nc(C)c(N2CCN(S(=O)(=O)N(Cc3ccccc3)Cc3ccccc3)CC2)c(=O)[nH]1	23.5	> 100	> 100	> 100	> 100	> 100	> 100	> 100	> 100	32.9	> 72.9	> 100	> 100
CC(=O)OC12C3C4C1C1C2C3C41OC(C)=O (stereo unspecified)	> 100	> 100	> 100	> 100	> 100	> 100	> 100	> 100	> 100	> 100	> 100	> 100	> 100
CC(=N\N)/C(C)=N/N=C(C)/C(C)=N/N	> 100	> 100	> 100	> 100	> 100	> 100	> 100	> 100	> 100	> 100	> 100	> 100	> 100
COc1ccc(C2OC(=O)c3ccc4ccccc4c32)c(C)c1 (stereo unspecified)	54	> 100	> 35.1	12.3	> 24.6	15.1	> 100	53.1	18.4	44.7	> 95.3	> 100	> 100
c1ccc2c(c1)c1c(n2CCOCCN2CCCC2)CCCC1	29.6	> 100	38.2	30.2	30.4	47.5	33.9	> 100	30.7	76	37	53	35.3
Cc1c2ccncc2cc2c1[nH]c1ccccc12	–	15.1	7.72	15.7	6.36	31.5	7.35	25.8	23.2	17	–	13.5	13.6
Cc1ccccc1OC(C)C(=O)NN1C(=O)CSC1c1ccc(Cl)cc1 (stereo unspecified)	34.8	> 100	> 100	> 100	47.5	38.6	> 58.8	> 93.6	> 100	> 100	> 100	> 100	> 100
[N-]=[N+]=NC(c1cn(C2CC(O)C(CO)O2)c(=O)[nH]c1=O)C(Br)Br (stereo unspecified)	> 100	> 100	> 100	> 100	> 100	> 100	> 100	> 100	> 100	> 100	> 100	–	> 100
c1cc2c(cc1NC1=NCCO1)OCO2	> 100	> 100	> 100	> 100	> 100	> 100	> 100	> 100	> 100	> 100	> 100	–	> 100
Cc1cc2/c(=C\c3ccc(N(C)C)cc3)c3ccccc3n2[n+]1C	8.77	–	0.354	1	6.44	9.03	2.59	2.63	2.08	2.26	6.04	1.07	21.3
CCCCCCCCCCCCCCCCNC(=O)C(=O)/C=C(\O)c1ccc(C)cc1	> 10	–	> 10	> 10	> 10	> 10	> 10	> 10	> 10	> 10	> 10	> 10	> 10
NC(=S)/N=C(/c1nc2ccc(Cl)cc2[nH]c1=O)C(O)c1ccccc1Cl (stereo unspecified)	> 100	> 100	> 100	> 100	> 100	> 100	> 100	–	> 100	> 100	> 100	> 100	> 100
[N-]=[N+]=NC1OC(=O)C(Cl)=C1N=P(c1ccccc1)(c1ccccc1)c1ccccc1 (stereo unspecified)	> 10	> 10	> 10	> 10	> 10	–	> 10	> 10	> 10	> 10	> 10	> 10	> 10
